One compound from US7517949B2, “Livin-derived peptides, compositions and uses thereof” (Hadasit Medical Research Services & Development Ltd., priority 2003, dated 2009) can be followed below.

Common to all, as to type: cell-based, human
One experiment has as its system LB33 Mel B1 cells. As to the kind of experiment: Etoposide-induced apoptosis, nuclear morphology, LB33 Mel B1. The conditions noted are these: Mel B1, high levels of Livin; etoposide 15 μg/ml. Here is the method: (§1) (b) Melanoma cell lines LB33 Mel A1 and B1 were treated with etoposide (15 μg/ml). Apoptosis rate was determined by nuclear morphology, as described.
(§2) Nuclear morphology was visualized using acridin orange (Sigma) staining as described [Loo, D. T. et al. (1998) Methods Cell Biol., 57: 251-264]. […] The percentage of apoptotic to viable cells was counted by fluorescence microscopy and 500 cells were scored for each sample. Flow cytometry analysis of the apoptotic cells was done using two different methods. In the Sub-G1 assay the cells were harvested, washed with PBS and fixed using 100% methanol. […] Cells transfected with a GFP-containing plasmid were analyzed using Annexin-V-Cy5 and PI staining according to the manufacturer instructions (MBL, Japan). In stably transfected cultures with a rate of GFP-positive cells higher than 95%, all cells were analyzed for apoptosis. In transiently transfected cells, GFP expression was first analyzed (FL-1), and only GFP-positive cells were analyzed for Annexin-V-Cy5 (FL-4) and PI (FL-3) staining.
(§3) LB33 A1 and B1 are two metastatic melanoma cell lines derived from the same patient before and after vaccination with autologous melanoma cells [Ikeda, H. et al. (1997) Immunity 6: 199-208; Lehmann, F. et al. (1995) Eur. J. Immunol. […] PARP was detected in all samples, confirming similar protein content.

Another experiment relates to LB33 Mel A1 cells. Briefly: Etoposide-induced apoptosis, nuclear morphology, LB33 Mel A1. The conditions noted are these: Mel A1, no Livin expression; etoposide 15 μg/ml. The procedure: as §1, §2, §3
The next experiment has as its system primary melanoma cells. Briefly: Etoposide-induced apoptosis in primary melanoma cultures (nuclear morphology). The conditions noted are these: etoposide 15 μg/ml, 24 and 48 hours. Here is the method:
FIG. 8b: Six samples were selected according to the level of Livin expression (high: 5556, 55112, moderate: 5524, 55164, or undetectable: 5530, 5533). […] Apoptosis rate was determined by nuclear morphology, as described. The data shown are representative of three independent experiments, which were also confirmed by flow cytometry, using sub-G1 assay.
Primary melanoma cells were derived and maintained as described [Lotem, M. et al. (2002) Br J Cancer, 86: 1534-1539].
Nuclear morphology was visualized using acridin orange (Sigma) staining as described [Loo, D. T. et al. (1998) Methods Cell Biol., 57: 251-264]. […] The percentage of apoptotic to viable cells was counted by fluorescence microscopy and 500 cells were scored for each sample. Flow cytometry analysis of the apoptotic cells was done using two different methods. In the Sub-G1 assay the cells were harvested, washed with PBS and fixed using 100% methanol. Following an overnight incubation at −20° C., cells were re-hydrated with PBS for 30 minutes on ice, and then resuspended in PBS with RNase A (50 μg/ml) and stained with Propidium Iodide (PI) (Sigma) at a final concentration of 5 μg/ml. Flow cytometry analysis was performed in FL2 histogram. Cells transfected with a GFP-containing plasmid were analyzed using Annexin-V-Cy5 and PI staining according to the manufacturer instructions (MBL, Japan). In stably transfected cultures with a rate of GFP-positive cells higher than 95%, all cells were analyzed for apoptosis. In transiently transfected cells, GFP expression was first analyzed (FL-1), and only GFP-positive cells were analyzed for Annexin-V-Cy5 (FL-4) and PI (FL-3) staining.
In order to determine whether Livin expression renders the melanoma cells resistant to chemotherapy, six melanoma samples were selected, according to their Livin expression. […] After 24 and 48 hours, cells were harvested and the percent of apoptosis determined in each sample by nuclear morphology (FIG. 8b). […]

For `COc1cc([C@@H]2c3cc4c(cc3[C@@H](O[C@@H]3O[C@@H]5CO[C@@H](C)O[C@H]5[C@H](O)[C@H]3O)[C@H]3COC(=O)[C@H]23)OCO4)cc(OC)c1O` [etoposide], the “response to etoposide (apoptosis by nuclear morphology)” value with LB33 Mel B1 cells is “completely resistant”; in the experiment with LB33 Mel A1 cells, “rapidly underwent apoptosis”. Besides, in the experiment on primary melanoma cells (samples 5524 and 55164, intermediate Livin), the “moderate resistance (percent of apoptosis)” value was 15-25%. Besides, in the experiment on primary melanoma cells (samples 5533 and 5530, no Livin expression), the apoptosis rate result was “up to 55%”. Further, in the experiment with primary melanoma cells (samples 5556 and 55112, high Livin expression), the resistance to etoposide entry was “completely resistant”.
